Starred links: 1 amine or outer side, 2 acyl side, 3 side chain; linkers in the order of their positions; H or OH if unused. Non-standard residues stand in square brackets, D forms with d. Residues, ends and D or L forms follow the SMILES beside them. Oic = O=C(O)[C@@H]1C[C@@H]2CCCC[C@@H]2N1; X10 = O=C(C(/C=C/CN[*:1])Cc1ccccc1)[*:2]; X5 = O=C(/C=C/c1cccc(CN[*:1])c1)[*:2]; X11 = O=C(/C=C/C1CCCCC1CN[*:1])[*:2]; X13 = O=C(CCc1cccc(CN[*:1])c1)[*:2]; X2 = O=C(/C=C/c1ccccc1CN[*:1])[*:2]; Hyp = O=C(O)[C@@H]1C[C@@H](O)CN1; X8 = O=C(CCc1ccccc1CN[*:1])[*:2]; dTic = O=C(O)[C@H]1Cc2ccccc2CN1

The first test deals with bradykinin-induced contraction of guinea pig ileum longitudinal muscle. Put plainly: Guinea pig ileum contraction assay. The class given is cell-based. The following applies: Schild analysis against bradykinin. As to the method:
Guinea pig intestine was removed and placed in a Petri dish containing Tyrodes solution and cut into 3-4 cm segments.
After equilibration of the tissues, appropriate volumes of bradykinin solutions were cumulatively added to the 10 ml tissue baths to increase the concentration of bradykinin in the bath step-by-step without washing out after each single dose. Higher concentrations were added only after the preceding contraction had reached a steady value. […] Antagonism of bradykinin responses to the presence of antagonist were determined by repeating the cumulative addition procedure for bradykinin after the tissue has been exposed to the antagonist for 5 minutes. Three or four different concentrations of antagonist were studied sequentially in the same preparations. Responses were expressed as a percentage of the maximum […] elicited by bradykinin in the absence of antagonist. pA2 values were calculated by Schild analysis.
For `N=C(N)NCCC[C@@H](N)C(=O)N[C@@H](CCCNC(=N)N)C(=O)N1CCC2(CC1)C(=O)N(CC(=O)N[C@@H](CO)C(=O)N1Cc3ccccc3C[C@@H]1C(=O)N1[C@H](C(=O)N[C@@H](CCCNC(=N)N)C(=O)O)C[C@@H]3CCCC[C@@H]31)CN2c1ccccc1` [HDArgArgX[Ph]CH2 COSerDTicOicArgOH], the “Guinea Pig Ileum Contraction pA2” value stood at 6.7.
`N=C(N)NCCC[C@@H](N)C(=O)N[C@@H](CCCNC(=N)N)C(=O)N1CCC2(CC1)C(=O)N(CC(=O)N[C@@H](CO)C(=O)N1Cc3ccccc3C[C@@H]1C(=O)N1[C@H](C(=O)N[C@@H](CCCNC(=N)N)C(=O)O)C[C@@H]3CCCC[C@@H]31)CN2C1CCCCC1` [HDArgArgX[c-C6 H11]CH2 COSerDTicOicArgOH]: the “Guinea Pig Ileum Contraction pA2” value stood at 6.4.

A further test addresses T1, bradykinin receptor, guinea pig terminal ileum homogenate (Cavia porcellus, UniProt O70526).
T1 construct: from tissue; host or cells: terminal ileum of male Hartley guinea pigs, washed membrane homogenate
T1 sequence (O70526 1-372): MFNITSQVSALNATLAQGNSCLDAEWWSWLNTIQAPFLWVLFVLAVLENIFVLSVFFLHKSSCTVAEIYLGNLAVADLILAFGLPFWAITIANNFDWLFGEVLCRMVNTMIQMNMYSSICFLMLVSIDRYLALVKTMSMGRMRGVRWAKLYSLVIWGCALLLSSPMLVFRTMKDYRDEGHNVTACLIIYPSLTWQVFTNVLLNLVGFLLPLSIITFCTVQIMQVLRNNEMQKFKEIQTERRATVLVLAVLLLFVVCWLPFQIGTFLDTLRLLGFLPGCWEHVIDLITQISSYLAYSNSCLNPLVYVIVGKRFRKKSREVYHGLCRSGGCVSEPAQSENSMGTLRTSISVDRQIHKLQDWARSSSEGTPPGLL
The experiment in a line: Guinea pig ileum binding of 3H-bradykinin. The settings on record: Table 1, read-out: Radioligand Binding Guinea Pig. As to the method:
Binding of ^3 H-bradykinin was performed using the method of D. C. Manning, R. Vavrek, J. M. Stewart, and S. H. Snyder, J. Pharmacol. Exp. Ther., (1986) 237:504. The tissues used in the binding assay were terminal ileum from male Hartley guinea pigs (150-350 g). After dissection, tissues were placed in 20 volume of ice-cold buffer A (25 mM TES containing 0.2 g/l of 1,10-phenanthroline adjusted of pH 6.8 with ammonium hydroxide) and homogenized using a Polytron Tissumizer at setting 6 for 15 seconds. The homogenate was centrifuged at 50,000×g for 10 minutes, the supernatant discarded, and the pellet resuspended in ice-cold buffer A by homogenization with the Polytron. Each tissue was homogenized and centrifuged three times. The final pellet was resuspended in buffer A containing bovine serum albumin (1 g/l) and Bacitracin (0.14 g/l) to a final volume of 170 ml/g of the original tissue weight. The binding assay consisted of […] in 12×75 mm polypropylene tubes: 50 μl ^3 H-bradykinin (20,000 dpm, ~0.3 nM in the final assay volume), 100 μl displacing drug in buffer A, and 750 μl tissue homogenate. Each tray contained tubes, to which no drug was added to measure maximum binding and tubes to which bradykinin (1 μM final concentration) had been added, to measure […]. Specific binding accounted for 96-98% total binding. Tubes were incubated for 90 minutes at ambient temperature. The assays were terminated by filtration over Whatman GF/B glass fiber filters that had been pretreated for 2 hours with polyethyleneimine (2 g/l) using a Brandel Tissue Harvester, followed by washing with 4×1 ml aliquots of ice-cold 50 mM Tris, pH 7.4. Filters were dissolved in Ready-Safe Fluor (Beckman) for at least 90 minutes before quantitation by liquid scintillation spectrometry. Kd values were determined using saturation binding and analysis by EBDA (G. A. MacPherson, J. Pharmacol. Methods (1985) 213), followed by LIGAND (P. J. Munson, D. Rodbard, Anal. Biochem. (1980) 220). Ki values were determined using competitive analysis followed by EBDA and LIGAND.
Consider `N=C(N)NCCC[C@@H](N)C(=O)N[C@@H](CCCNC(=N)N)C(=O)NCc1cccc(CCC(=O)N[C@@H](CO)C(=O)N2Cc3ccccc3C[C@@H]2C(=O)N2[C@H](C(=O)N[C@@H](CCCNC(=N)N)C(=O)O)C[C@@H]3CCCC[C@@H]32)c1` (H-[dR]R[X13]S[dTic][Oic]R-OH), for which the Ki was 0.466 µM.
Still for that read-out and setting: the same measure for `N=C(N)NCCC[C@@H](N)C(=O)N[C@@H](CCCNC(=N)N)C(=O)NCC1CCCCC1/C=C/C(=O)N[C@@H](CO)C(=O)N1Cc2ccccc2C[C@@H]1C(=O)N1[C@H](C(=O)N[C@@H](CCCNC(=N)N)C(=O)O)C[C@@H]2CCCC[C@@H]21` (some centres unmarked) (H-[dR]R[X11]S[dTic][Oic]R-OH): 0.638 µM; for `N=C(N)NCCC[C@@H](N)C(=O)N[C@@H](CCCNC(=N)N)C(=O)NCc1ccccc1/C=C/C(=O)N[C@@H](Cc1ccccc1)C(=O)N[C@@H](CO)C(=O)N1Cc2ccccc2C[C@@H]1C(=O)N1[C@H](C(=O)N[C@@H](CCCNC(=N)N)C(=O)O)C[C@@H]2CCCC[C@@H]21` (H-[dR]R[X2]FS[dTic][Oic]R-OH): 1.27 µM; for `N=C(N)NCCC[C@@H](N)C(=O)N[C@@H](CCCNC(=N)N)C(=O)N1CCC[C@H]1C(=O)N1C[C@H](O)C[C@H]1C(=O)NC/C=C/C(Cc1ccccc1)C(=O)N[C@@H](CO)C(=O)N1Cc2ccccc2C[C@@H]1C(=O)N1[C@H](C(=O)N[C@@H](CCCNC(=N)N)C(=O)O)C[C@@H]2CCCC[C@@H]21` (some centres unmarked) (H-[dR]RP[Hyp][X10]S[dTic][Oic]R-OH): 0.358 µM.
As for `N=C(N)NCCC[C@@H](N)C(=O)N[C@@H](CCCNC(=N)N)C(=O)NCc1ccccc1CCC(=O)N[C@@H](CO)C(=O)N1Cc2ccccc2C[C@@H]1C(=O)N1[C@H](C(=O)N[C@@H](CCCNC(=N)N)C(=O)O)C[C@@H]2CCCC[C@@H]21` (H-[dR]R[X8]S[dTic][Oic]R-OH), the Ki turned out to be 0.563 µM.
Still for that read-out and setting: the same measure for `N=C(N)NCCC[C@@H](N)C(=O)N[C@@H](CCCNC(=N)N)C(=O)NCc1ccccc1/C=C/C(=O)N[C@@H](CO)C(=O)N1Cc2ccccc2C[C@@H]1C(=O)N1[C@H](C(=O)N[C@@H](CCCNC(=N)N)C(=O)O)C[C@@H]2CCCC[C@@H]21` (H-[dR]R[X2]S[dTic][Oic]R-OH): 0.12 ± 0.008 µM; for `C[C@H](NC(=O)/C=C/c1ccccc1CNC(=O)[C@H](CCCNC(=N)N)NC(=O)[C@H](N)CCCNC(=N)N)C(=O)N1Cc2ccccc2C[C@@H]1C(=O)N1[C@H](C(=O)N[C@@H](CCCNC(=N)N)C(=O)O)C[C@@H]2CCCC[C@@H]21` (H-[dR]R[X2]A[dTic][Oic]R-OH): 0.278 µM; for `N=C(N)NCCC[C@@H](N)C(=O)N[C@@H](CCCNC(=N)N)C(=O)NCc1cccc(/C=C/C(=O)N[C@@H](CO)C(=O)N2Cc3ccccc3C[C@@H]2C(=O)N2[C@H](C(=O)N[C@@H](CCCNC(=N)N)C(=O)O)C[C@@H]3CCCC[C@@H]32)c1` (H-[dR]R[X5]S[dTic][Oic]R-OH): 0.496 µM.

Another test addresses T2, human bradykinin B2 receptor (Homo sapiens, UniProt P30411).
T2 construct: The HindIII/XbaI fragment of one full-length clone, 126A, was inserted into pcDNAI neo vector; expressed in transfected cells
T2 sequence (P30411 1-391): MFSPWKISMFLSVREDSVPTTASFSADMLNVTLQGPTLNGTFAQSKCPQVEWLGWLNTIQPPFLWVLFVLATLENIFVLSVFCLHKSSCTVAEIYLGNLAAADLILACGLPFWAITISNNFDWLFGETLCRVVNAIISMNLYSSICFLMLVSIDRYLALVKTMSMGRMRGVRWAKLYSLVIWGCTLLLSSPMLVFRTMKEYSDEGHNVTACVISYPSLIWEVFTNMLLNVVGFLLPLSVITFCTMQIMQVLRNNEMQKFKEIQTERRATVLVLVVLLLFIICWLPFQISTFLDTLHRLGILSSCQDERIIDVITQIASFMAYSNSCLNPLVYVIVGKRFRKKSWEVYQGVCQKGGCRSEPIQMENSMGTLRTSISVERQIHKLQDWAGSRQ
The experiment in a line: Radioligand binding, H2O.2 cell membranes, 3H-NPC17731. The settings on record: Table 1; 3H-NPC17731; read-out: Radioligand Binding Human 3H17731. The protocol:
A human bradykinin B2 receptor was expressed in CHO/K cells. Briefly, approximately 2×10^6 plaques from a human uterus λgt10 cDNA library (Clontech Laboratories; Palo Alto, Calif.) were screened using a PCR fragment containing the coding region of the rat B2 receptor. This probe was generated by random-primed synthesis in the presence of α[^32 P]dATP. Duplicate filters were hybridized overnight at 42° C. in 1M NaCl, 50 mM Tris pH 7.5, 5× Denhardt's, 200 μg/ml salmon sperm DNA, 1% SDS, and 20% formamide. The filters were washed at 65° C. in 1× SSC and 1% SDS. Coincident positively hybridizing plaques were purified and rescreened with the same probe and stringency conditions. EcoRI fragments of positive clones were inserted into Bluescript/KS II+vector (Stratagene; La Jolla, Calif.) for sequence determination.
The nucleotide sequence of the cloned human B2 receptors was determined using double-stranded DNA and the dideoxy chain termination method. Commercially available T3 and T7 oligonucleotides (USB; Cleveland, Ohio) and synthetic 21-mer oligonucleotides (DNA/RNA Synthesizer; applied Biosystems Inc.; Palo Alto, Calif.) from both the known rat sequence and the determined human sequence were used to identify the nucleotide sequence from the 5' untranslated end to the BglII site in the 3' untranslated end of the clone.
CHO/K cells were plated in 2 ml of growth medium (Ham's F12 with 10% FBS) per 6 well plate and incubated at 37° C., 5% CO2 until they were 60% confluent. For each well, 4, 12, and 16 μg of DNA was diluted in 100 μl Opti-MEM I reduced serum medium (Gibco/BRL; Gaithersburg, Md.). 12 μl of TransfectASE reagent (Gibco/BRL) was diluted in a separate aliquot of 100 μl Opti-MEM I. The DNA and TransfecASE solutions were combined, mixed gently, and incubated at 25° C. for 15 minutes. This solution was then diluted to 1 ml with Opti-MEM I. Each well was washed twice with Opti-MEM I and 1 ml of the DNA/TransfectAse complex was added to each well. After a 5 hour incubation at 37° C. and 5% CO2, 1 ml of Ham's F12 with 20% FBS was added to each well and cells were incubated overnight. Media was replaced with growth medium and incubated for additional 24 hours.
This assay measures the ability of a bradykinin antagonist compound to compete for binding to the human B2 receptor with tritiated bradykinin or tritiated NPC17731, a bradykinin analog which is known to bind the B2 receptor and act as a bradykinin antagonist.
H2O.2 cells were grown to confluency in Ham's F12 media containing 10% FBS and 500 μg/ml Geneticin. Growth media was aspirated and the monolayer washed once with Dulbecco's PBS without Ca^++ and Mg^++. Cells were scraped in Dulbecco's PBS and centrifuged at 2,000×g for 10 minutes. Pellets were resuspended in 25 mM TES, 1 mM 1,10-phenanthroline pH 6.8 buffer and homogenized using a Ploytron at setting 5 for 10 seconds. An aliquot was taken for a protein determination using a BioRad protein assay kit. Membranes were centrifuged at 48,000×g for 10 minutes at 4° C. Pellets were resuspended in the TES buffer with 0.1% BSA and 0.014% bacitracin. 0.5 ml aliquots were frozen in liquid N2 and stored at -80° C. for up to 2 weeks.
Membranes from H2O.2 cells previously prepared were thawed at 37° C. and diluted in 25 mM TES, […] 1,10-phenanthroline pH 6.8 containing BSA and bactiracin. […] Non-specific binding was determined with 1 μM bradykinin. The tubes were incubated 90 minutes at 25° C. and the assay was terminated by rapid vacuum filtration onto Whatman GF/B filters presoaked with 0.2% PEI for 3 hours followed by 2×3 ml aliquots of ice-cold 50 mM Tris, pH 7.4. Radioactivity was counted with a Beckman scintillation counter.
For `N=C(N)NCCC[C@@H](N)C(=O)N[C@@H](CCCNC(=N)N)C(=O)NCc1ccccc1/C=C/C(=O)N[C@@H](CO)C(=O)N1Cc2ccccc2C[C@@H]1C(=O)N1[C@H](C(=O)N[C@@H](CCCNC(=N)N)C(=O)O)C[C@@H]2CCCC[C@@H]21` (H-[dR]R[X2]S[dTic][Oic]R-OH), the Ki was 0.027 µM.

(Values after US5817756A, “Pseudo- and non-peptide bradykinin receptor antagonists” (Scios Inc., priority 1995, dated 1998).)
